This is an account of results in patent publication US20240109887A1 (Viva Star Biosciences (Suzhou) Co., Ltd., priority 2021, published 2024).

What is called IC50 is the midpoint of a concentration-inhibition curve.

The target of assay [1] is T1, KRAS-WT/SOS1 (Homo sapiens, UniProt Q07889).
T1 sequence (Q07889 1-1333): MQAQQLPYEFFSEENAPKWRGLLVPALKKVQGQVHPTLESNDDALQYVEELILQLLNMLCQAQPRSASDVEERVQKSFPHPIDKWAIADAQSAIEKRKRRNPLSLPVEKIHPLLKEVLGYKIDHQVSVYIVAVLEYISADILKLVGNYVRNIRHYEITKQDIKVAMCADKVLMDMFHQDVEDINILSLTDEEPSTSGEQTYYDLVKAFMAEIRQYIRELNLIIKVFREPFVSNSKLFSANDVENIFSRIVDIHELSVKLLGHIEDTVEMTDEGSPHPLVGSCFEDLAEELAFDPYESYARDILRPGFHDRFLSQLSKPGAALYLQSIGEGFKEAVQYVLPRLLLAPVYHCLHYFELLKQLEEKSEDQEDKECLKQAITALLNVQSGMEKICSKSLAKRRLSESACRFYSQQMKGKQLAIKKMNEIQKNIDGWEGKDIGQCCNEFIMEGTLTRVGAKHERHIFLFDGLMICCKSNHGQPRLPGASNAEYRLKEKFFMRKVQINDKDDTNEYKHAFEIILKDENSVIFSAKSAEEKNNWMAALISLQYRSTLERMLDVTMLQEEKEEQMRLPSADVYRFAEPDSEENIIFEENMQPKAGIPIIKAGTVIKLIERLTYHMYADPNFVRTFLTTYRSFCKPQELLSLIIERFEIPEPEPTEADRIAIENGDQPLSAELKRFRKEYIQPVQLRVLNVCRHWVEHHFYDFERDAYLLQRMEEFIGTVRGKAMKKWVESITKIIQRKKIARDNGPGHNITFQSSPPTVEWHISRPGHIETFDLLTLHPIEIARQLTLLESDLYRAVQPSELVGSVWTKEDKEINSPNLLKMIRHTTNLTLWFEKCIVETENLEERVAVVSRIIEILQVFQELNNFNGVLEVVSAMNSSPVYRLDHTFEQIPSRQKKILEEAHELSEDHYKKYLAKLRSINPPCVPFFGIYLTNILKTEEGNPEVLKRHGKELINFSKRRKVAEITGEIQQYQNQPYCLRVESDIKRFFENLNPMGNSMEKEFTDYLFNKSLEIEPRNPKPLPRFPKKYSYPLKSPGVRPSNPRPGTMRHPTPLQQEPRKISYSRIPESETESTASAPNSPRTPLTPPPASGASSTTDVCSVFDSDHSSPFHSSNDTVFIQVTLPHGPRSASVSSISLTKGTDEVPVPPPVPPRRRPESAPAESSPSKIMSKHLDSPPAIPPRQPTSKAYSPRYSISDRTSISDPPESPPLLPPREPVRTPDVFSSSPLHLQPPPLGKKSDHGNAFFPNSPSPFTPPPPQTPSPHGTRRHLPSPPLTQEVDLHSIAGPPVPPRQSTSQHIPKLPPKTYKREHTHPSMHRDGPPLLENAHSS
The assay is described as follows: biochemical.

Assay [2] concerns the target T2, KRAS G12D/SOS1 (Homo sapiens, UniProt Q07889).
T2 sequence (Q07889 1-1333): T1 sequence (Q07889 1-1333)
The assay is described as follows: biochemical.

Turning to `COc1c(C2CCCNC2)cc(C(=O)N[C@H](C)c2cccc(C(F)(F)CO)c2)c2[nH]ncc12` (stereo partly drawn) [Example 36, N—((R)-1-(3-(1,1-difluoro-2-hydroxyethyl)phenyl)ethyl)-4-methoxy-5-(piperidin-3-yl)-1H-indazole-7-carboxamide], the IC50 in assay [1] and in assay [2] was below 100 nM each time.

Take `COc1c(O[C@H]2CCOC2)cc(C(=O)N[C@H](C)c2cccc(C(F)(F)CO)c2)c2n[nH]cc12` [Example 30, N-((R)-1-(3-(1,1-difluoro-2-hydroxyethyl)phenyl)ethyl)-4-methoxy-5-(((S)-tetrahydrofuran-3-yl)oxy)-2H-indazole-7-carboxamide]: the IC50 in assay [1] and in assay [2] was 100 to 500 nM in each case.

Regarding `COc1c(C2CCNCC2)cc(C(=O)N[C@H](C)c2cccc(C(F)(F)CO)c2)c2[nH]ncc12` [Example 35, N-[(1R)-1-[3-(1,1-difluoro-2-hydroxyethyl)phenyl]ethyl]-4-methoxy-5-(piperidin-4-yl)-1H-indazole-7-carboxamide], the IC50 in assay [1] and in assay [2] was below 100 nM each time.

As to `Cc1c[nH]c2c(C(=O)N[C@H](C)c3cccc4c3CCC4(F)F)cn(C3(C)CC3)c(=O)c12` [Example 21, (R)—N-(1-(1,1-difluoro-2,3-dihydro-1H-inden-4-yl)ethyl)-3-methyl-5-(1-methylcyclopropyl)-4-oxo-4,5-dihydro-1H-pyrrolo[3,2-c]pyridine-7-carboxamide], the IC50 in assay [1] was below 100 nM; in assay [2], 100 to 500 nM.

For the molecule `CNCc1ccccc1-c1csc([C@@H](C)NC(=O)c2cn(C3CC(F)(F)C3)c(=O)c3cn[nH]c23)c1` [Example 15, 5-(3,3-difluorocyclobutyl)-N-[(1R)-1-(4-{2-[(methylamino)methyl]phenyl}thiophen-2-yl)ethyl]-4-oxo-1H,4H,5H-pyrazolo[4,3-c]pyridine-7-carboxamide], the 50% inhibitory concentration (IC50) in assay [1] and in assay [2] was below 100 nM in each case.

For the molecule `COc1c(O[C@H]2CCOC2)cc(C(=O)N[C@H](C)c2cccc(C(F)(F)F)c2)c2n[nH]cc12` [Example 27, 4-methoxy-5-(((S)-tetrahydrofuran-3-yl)oxy)-N—((R)-1-(3-(trifluoromethyl)phenyl)ethyl)-2H-indazole-7-carboxamide], the IC50 in assay [1] and in assay [2] was 100 to 500 nM in each case.

As for `C[C@@H](NC(=O)c1cn(C2(C)CC2)c(=O)c2cc[nH]c12)c1cccc(C(F)(F)CO)c1` [Example 42, (R)—N-(1-(3-(1,1-difluoro-2-hydroxyethyl)phenyl)ethyl)-5-(1-methylcyclopropyl)-4-oxo-4,5-dihydro-1H-pyrrolo[3,2-c]pyridine-7-carboxamide], the IC50 in assay [1] and in assay [2] was below 100 nM in each case.

On to `COc1c(CN(C)C)cc(C(=O)N[C@H](C)c2cccc3c2CCC3(F)F)c2n[nH]cc12` [Example 19, N-[(1R)-1-(1,1-difluoro-2,3-dihydro-1H-inden-4-yl)ethyl]-5-[(dimethylamino)methyl]-4-methoxy-2H-indazole-7-carboxamide], for which the half-inhibitory concentration (IC50) in assay [1] and in assay [2] was 100 to 500 nM each time.

As to `COc1c(N2CCN(C)CC2)cc(C(=O)N[C@H](C)c2cccc(C(F)(F)CO)c2)c2[nH]ncc12` [Example 32, N-[(1R)-1-[3-(1,1-difluoro-2-hydroxyethyl)phenyl]ethyl]-4-methoxy-5-(4-methylpiperazin-1-yl)-1H-indazole-7-carboxamide], the IC50 in assay [1] and in assay [2] was below 100 nM throughout.

Regarding `C[C@@H](NC(=O)c1cn(C2(C)CC2)c(=O)c2cc[nH]c12)c1cccc2c1CCC2(F)F` [Example 41, (R)—N-(1-(1,1-difluoro-2,3-dihydro-1H-inden-4-yl)ethyl)-5-(1-methylcyclopropyl)-4-oxo-4,5-dihydro-1H-pyrrolo[3,2-c]pyridine-7-carboxamide], the IC50 in assay [1] and in assay [2] was below 100 nM in each case.

With `COc1c(C2CCN(C)CC2)cc(C(=O)N[C@H](C)c2cccc(C(F)(F)CO)c2)c2[nH]ncc12` [Example 34, N-[(1R)-1-[3-(1,1-difluoro-2-hydroxyethyl)phenyl]ethyl]-4-methoxy-5-(1-methylpiperidin-4-yl)-1H-indazole-7-carboxamide], the IC50 in assay [1] and in assay [2] was below 100 nM throughout.

Turning to `COc1c(O[C@H]2CCOC2)cc(C(=O)N[C@H](C)c2cc(N)cc(C(F)(F)F)c2)c2n[nH]cc12` [Example 28, N-((R)-1-(3-amino-5-(trifluoromethyl)phenyl)ethyl)-4-methoxy-5-(((S)-tetrahydrofuran-3-yl)oxy)-2H-indazole-7-carboxamide], the IC50 in assay [1] and in assay [2] was 100 to 500 nM throughout.

Turning to `C[C@@H](NC(=O)c1cn(C2(C)CC2)c(=O)c2cn[nH]c12)c1cccc(C(C)(F)F)c1F` [Example 7, (R)-N-(1-(3-(1,1-difluoroethyl)-2-fluorophenyl)ethyl)-5-(1-methylcyclopropyl)-4-oxo-4,5-dihydro-1H-pyrazolo[4,3-c]pyridine-7-carboxamide], the results for the IC50 in assay [1] and in assay [2] were below 100 nM and 100 to 500 nM, respectively.

As for `C[C@@H](NC(=O)c1cn(C2(C)CC2)c(=O)c2c[nH]nc12)c1cccc2c1CCC2(F)F` [Example 4, (R)-N-(1-(1,1-difluoro-2,3-dihydro-1H-inden-4-yl)ethyl)-5-(1-methylcyclopropyl)-4-oxo-4,5-dihydro-2H-pyrazolo[4,3-c]pyridine-7-carboxamide], the IC50 in assay [1] and in assay [2] was below 100 nM in each case.

Turning to `COc1c(-c2cnc[nH]2)cc(C(=O)N[C@H](C)c2cccc3c2CCC3(F)F)c2n[nH]cc12` [Example 22, N-[(1R)-1-(1,1-difluoro-2,3-dihydro-1H-inden-4-yl)ethyl]-5-(1H-imidazol-5-yl)-4-methoxy-2H-indazole-7-carboxamide], the IC50 in assay [1] and in assay [2] was 100 to 500 nM each time.

Regarding `COc1c(CN(C)C)cc(C(=O)N[C@H](C)c2cccc(C(F)(F)CO)c2)c2n[nH]cc12` [Example 20, N-[(1R)-1-[3-(1,1-difluoro-2-hydroxyethyl)phenyl]ethyl]-5-[(dimethylamino)methyl]-4-methoxy-2H-indazole-7-carboxamide], the half-maximal inhibitory concentration (IC50) in assay [1] and in assay [2] was 100 to 500 nM throughout.

For the molecule `COc1c(-c2cnc[nH]2)cc(C(=O)N[C@H](C)c2cccc(C(F)(F)CO)c2)c2n[nH]cc12` [Example 23, N-[(1R)-1-[3-(1,1-difluoro-2-hydroxyethyl)phenyl]ethyl]-5-(1H-imidazol-5-yl)-4-methoxy-2H-indazole-7-carboxamide], the half-inhibitory concentration (IC50) in assay [1] and in assay [2] was 100 to 500 nM in each case.

On to `C[C@@H](NC(=O)c1cn(C2(C)CC2)c(=O)c2c[nH]nc12)c1cccc(C(F)(F)CO)c1` [Example 5, (R)-N-(1-(3-(1,1-difluoro-2-hydroxyethyl)phenyl)ethyl)-5-(1-methylcyclopropyl)-4-oxo-4,5-dihydro-2H-pyrazolo[4,3-c]pyridine-7-carboxamide], for which the IC50 in assay [1] and in assay [2] was below 100 nM in each case.

As for `COc1c(C2CCCN(C)C2)cc(C(=O)N[C@H](C)c2cccc(C(F)(F)CO)c2)c2[nH]ncc12` (stereo partly drawn) [Example 37, N—((R)-1-(3-(1,1-difluoro-2-hydroxyethyl)phenyl)ethyl)-4-methoxy-5-(1-methylpiperidin-3-yl)-1H-indazole-7-carboxamide], the half-maximal inhibitory concentration (IC50) in assay [1] and in assay [2] was below 100 nM throughout.

For `Cc1c([C@@H](C)NC(=O)c2cn(C3(C)CC3)c(=O)c3cn[nH]c23)cccc1C(F)(F)F` [Example 6, (R)-N-(1-(2-methyl-3-(trifluoromethyl)phenyl)ethyl)-5-(1-methylcyclopropyl)-4-oxo-4,5-dihydro-1H-pyrazolo[4,3-c]pyridine-7-carboxamide], the concentration for half-maximal inhibition (IC50) in assay [1] is below 100 nM; in assay [2], 100 to 500 nM.

Take `COc1c(O[C@H]2CCOC2)cc(C(=O)N[C@H](C)c2cccc3c2CCC3(F)F)c2n[nH]cc12` [Example 29, N-((R)-1-(1,1-difluoro-2,3-dihydro-1H-inden-4-yl)ethyl)-4-methoxy-5-(((S)-tetrahydrofuran-3-yl)oxy)-2H-indazole-7-carboxamide]: the IC50 is below 100 nM in assay [1] and 100 to 500 nM in assay [2].
